Assays:
[1] = test system: strains expressing KPC alone or in combination with additional beta-lactamases; experiment: microbe, parasite or virus in culture; format: cell-based
[2] = test system: EC1007 Escherichia coli KPC-3; experiment: Checkerboard assay, biapenem potentiation; details: Biapenem MIC 8-fold; EC1007 KPC-3 class A
[3] = test system: SM1000 Serratia marcescens SME-2; experiment: Checkerboard assay, biapenem potentiation; details: Biapenem MIC 8-fold; SM1000 SME-2 class A
[4] = target: CTX-M-15, lysate of KP1009 (Escherichia coli, UniProt Q9EXV5); experiment: Inhibition of ceftazidime hydrolysis by bacterial lysate
Chain of CTX-M-15, lysate of KP1009 (Q9EXV5 entry or part of it): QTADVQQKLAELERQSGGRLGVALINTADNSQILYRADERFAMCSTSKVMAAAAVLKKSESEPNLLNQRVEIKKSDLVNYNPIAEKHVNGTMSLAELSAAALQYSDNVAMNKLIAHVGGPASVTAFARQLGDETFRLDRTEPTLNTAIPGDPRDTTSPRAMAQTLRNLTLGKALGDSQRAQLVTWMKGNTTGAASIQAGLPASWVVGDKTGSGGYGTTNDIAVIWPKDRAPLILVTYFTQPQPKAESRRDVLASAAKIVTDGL

OXA-10, lysate of KP1007 = OXA-10, lysate of KP1007 (Pseudomonas aeruginosa, UniProt P14489); experiment: as above
Chain of OXA-10, lysate of KP1007 (P14489 20-266): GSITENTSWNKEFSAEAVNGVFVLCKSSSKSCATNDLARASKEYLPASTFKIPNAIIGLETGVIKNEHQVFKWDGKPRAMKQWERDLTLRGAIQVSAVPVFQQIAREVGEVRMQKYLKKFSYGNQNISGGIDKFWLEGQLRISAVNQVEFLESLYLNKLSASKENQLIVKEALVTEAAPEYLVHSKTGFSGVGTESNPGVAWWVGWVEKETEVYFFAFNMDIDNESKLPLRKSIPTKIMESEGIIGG

[5] = Klebsiella pneumoniae KP 1004, KPC-2, Compound 5 10 mg/L
[6] = Klebsiella pneumoniae KP 1008, KPC-2, Compound 5 0.31 mg/L
[7] = Klebsiella pneumoniae KP 1008, KPC-2, Compound 5 0.625 mg/L
[8] = Klebsiella pneumoniae KP 1008, KPC-2, Compound 5 […]
[9] = Klebsiella pneumoniae KP1082, KPC-2 SHV-1, Compound 5 0.31 mg/L
[10] = Klebsiella pneumoniae KP1082, KPC-2 SHV-1, Compound 5 0.625 mg/L
[11] = Klebsiella pneumoniae KP1082, KPC-2 SHV-1, Compound 5 5 mg/L
[12] = Klebsiella pneumoniae KP1082, KPC-2 SHV-1, Compound 5 10 mg/L
[13] = Klebsiella pneumoniae KP1082, KPC-2 SHV-1, Compound 5 […]
[14] = Klebsiella pneumoniae KP1083, KPC-3, SHV-1, TEM-1, Compound 5 10 mg/L
[15] = Klebsiella pneumoniae KP1083, KPC-3, SHV-1, TEM-1, Compound 5 […]
[16] = Klebsiella pneumoniae KP1084, KPC-3, SHV-11, TEM-1, Compound 5 5 mg/L
[17] = Klebsiella pneumoniae KP1084, KPC-3, SHV-11, TEM-1, Compound 5 10 mg/L
[18] = Klebsiella pneumoniae KP 1087, KPC-2, CTX-M-15, SHV-11, TEM-1, Compound 5 0.31 mg/L
[19] = Klebsiella pneumoniae KP 1087, KPC-2, CTX-M-15, SHV-11, TEM-1, Compound 5 0.625 mg/L
[20] = Klebsiella pneumoniae KP 1087, KPC-2, CTX-M-15, SHV-11, TEM-1, Compound 5 5 mg/L
[21] = Klebsiella pneumoniae KP 1087, KPC-2, CTX-M-15, SHV-11, TEM-1, Compound 5 10 mg/L
[22] = Klebsiella pneumoniae KP1088, KPC-3, SHV-11, TEM-1, Compound 5 0.31 mg/L
[23] = Klebsiella pneumoniae KP1088, KPC-3, SHV-11, TEM-1, Compound 5 0.625 mg/L
[24] = Klebsiella pneumoniae KP1088, KPC-3, SHV-11, TEM-1, Compound 5 5 mg/L
[25] = Klebsiella pneumoniae KP1088, KPC-3, SHV-11, TEM-1, Compound 5 10 mg/L

O=C(O)C[C@@H]1CC[C@H](NC(=O)Cc2cccs2)B(O)O1 [Compound 5, 2-((3R,6S)-2-hydroxy-3-(2-(thiophen-2-yl)acetamido)-1,2-oxaborinan-6-yl)acetic acid]
MIC of Biapenem [1, 5]: X (MIC of less than 0.5 mg/L)
MIC of Doripenem [1, 5]: X (MIC of less than 0.5 mg/L)
MIC of Ertapenem [1, 5]: X (MIC of less than 0.5 mg/L)
MIC of Biapenem ([1]; Klebsiella pneumoniae KP 1004, KPC-2, Compound 5 […]): X (MIC of less than 0.5 mg/L)
MIC of Biapenem [1, 6]: X (MIC of less than 0.5 mg/L)
MIC of Doripenem [1, 6]: X (MIC of less than 0.5 mg/L)
MIC of Ertapenem [1, 6]: X (MIC of less than 0.5 mg/L)
MIC of Biapenem [1, 7]: X (MIC of less than 0.5 mg/L)
MIC of Doripenem [1, 7]: X (MIC of less than 0.5 mg/L)
MIC of Ertapenem [1, 7]: X (MIC of less than 0.5 mg/L)
MIC of Biapenem [1, 8]: X (MIC of less than 0.5 mg/L)
MIC of Doripenem [1, 8]: X (MIC of less than 0.5 mg/L)
MIC of Ertapenem [1, 8]: X (MIC of less than 0.5 mg/L)
MIC of Biapenem [1, 9]: X (MIC of less than 0.5 mg/L)
MIC of Doripenem [1, 9]: X (MIC of less than 0.5 mg/L)
MIC of Ertapenem [1, 9]: X (MIC of less than 0.5 mg/L)
MIC of Biapenem [1, 10]: X (MIC of less than 0.5 mg/L)
MIC of Doripenem [1, 10]: X (MIC of less than 0.5 mg/L)
MIC of Ertapenem [1, 10]: X (MIC of less than 0.5 mg/L)
MIC of Biapenem [1, 11]: X (MIC of less than 0.5 mg/L)
MIC of Doripenem [1, 11]: X (MIC of less than 0.5 mg/L)
MIC of Ertapenem [1, 11]: X (MIC of less than 0.5 mg/L)
MIC of Biapenem [1, 12]: X (MIC of less than 0.5 mg/L)
MIC of Doripenem [1, 12]: X (MIC of less than 0.5 mg/L)
MIC of Ertapenem [1, 12]: X (MIC of less than 0.5 mg/L)
MIC of Biapenem [1, 13]: X (MIC of less than 0.5 mg/L)
MIC of Doripenem [1, 13]: X (MIC of less than 0.5 mg/L)
MIC of Ertapenem [1, 13]: X (MIC of less than 0.5 mg/L)
MIC of Doripenem [1, 14]: X (MIC of less than 0.5 mg/L)
MIC of Ertapenem [1, 14]: X (MIC of less than 0.5 mg/L)
MIC of Doripenem [1, 15]: Y (MIC of 0.5 mg/L to 4 mg/L)
MIC of Ertapenem [1, 15]: Y (MIC of 0.5 mg/L to 4 mg/L)
MIC of Ertapenem ([1]; Klebsiella pneumoniae KP1084, KPC-3, SHV-11, TEM-1, Compound 5 0.31 mg/L): Z (MIC of greater than 4 mg/L)
MIC of Ertapenem ([1]; Klebsiella pneumoniae KP1084, KPC-3, SHV-11, TEM-1, Compound 5 0.625 mg/L): Z (MIC of greater than 4 mg/L)
MIC of Biapenem [1, 16]: X (MIC of less than 0.5 mg/L)
MIC of Doripenem [1, 16]: Y (MIC of 0.5 mg/L to 4 mg/L)
MIC of Ertapenem [1, 16]: Y (MIC of 0.5 mg/L to 4 mg/L)
MIC of Biapenem [1, 17]: X (MIC of less than 0.5 mg/L)
MIC of Doripenem [1, 17]: X (MIC of less than 0.5 mg/L)
MIC of Ertapenem [1, 17]: Y (MIC of 0.5 mg/L to 4 mg/L)
MIC of Ertapenem ([1]; Klebsiella pneumoniae KP1084, KPC-3, SHV-11, TEM-1, Compound 5 […]): Z (MIC of greater than 4 mg/L)
MIC of Biapenem [1, 18]: Z (MIC of greater than 4 mg/L)
MIC of Doripenem [1, 18]: Z (MIC of greater than 4 mg/L)
MIC of Ertapenem [1, 18]: Z (MIC of greater than 4 mg/L)
MIC of Biapenem [1, 19]: Z (MIC of greater than 4 mg/L)
MIC of Doripenem [1, 19]: Z (MIC of greater than 4 mg/L)
MIC of Ertapenem [1, 19]: Z (MIC of greater than 4 mg/L)
MIC of Biapenem [1, 20]: X (MIC of less than 0.5 mg/L)
MIC of Doripenem [1, 20]: Y (MIC of 0.5 mg/L to 4 mg/L)
MIC of Ertapenem [1, 20]: Y (MIC of 0.5 mg/L to 4 mg/L)
MIC of Biapenem [1, 21]: X (MIC of less than 0.5 mg/L)
MIC of Doripenem [1, 21]: X (MIC of less than 0.5 mg/L)
MIC of Ertapenem [1, 21]: Y (MIC of 0.5 mg/L to 4 mg/L)
MIC of Ertapenem ([1]; Klebsiella pneumoniae KP 1087, KPC-2, CTX-M-15, SHV-11, TEM-1, Compound 5 […]): Z (MIC of greater than 4 mg/L)
MIC of Biapenem [1, 22]: X (MIC of less than 0.5 mg/L)
MIC of Doripenem [1, 22]: Y (MIC of 0.5 mg/L to 4 mg/L)
MIC of Ertapenem [1, 22]: Y (MIC of 0.5 mg/L to 4 mg/L)
MIC of Biapenem [1, 23]: X (MIC of less than 0.5 mg/L)
MIC of Doripenem [1, 23]: X (MIC of less than 0.5 mg/L)
MIC of Ertapenem [1, 23]: X (MIC of less than 0.5 mg/L)
MIC of Biapenem [1, 24]: X (MIC of less than 0.5 mg/L)
MIC of Doripenem [1, 24]: X (MIC of less than 0.5 mg/L)
MIC of Ertapenem [1, 24]: X (MIC of less than 0.5 mg/L)
MIC of Biapenem [1, 25]: X (MIC of less than 0.5 mg/L)
MIC of Doripenem [1, 25]: X (MIC of less than 0.5 mg/L)
MIC of Ertapenem [1, 25]: X (MIC of less than 0.5 mg/L)
MPC8 [2]: X (MPC8 of less than 0.16 μg/mL)
MPC8 [3]: Y (MPC8 of 0.16 μg/mL to 1 μg/mL)
IC50 [4]: < 337 nM
IC50 (OXA-10, lysate of KP1007): 337 to 3370 nM
